Ki and IC50 data for 10 compounds are collected here from patent US20160185797A1, “ALKYNYL ALCOHOLS AND METHODS OF USE” (Genentech, Inc., priority 2013, published 2016).

The target of experiment [1] is T1, nuclear factor-kappa B (NF-kB)-inducing kinase (NIK) (Homo sapiens, UniProt Q99558).
T1 construct: made in house; host or cells: baculovirus-infected insect cells
Kind of experiment: NIK enzyme inhibition assay (Transcreener ADP fluorescence polarization, NIK ADP-FP). It counts as biochemical.

The test system of experiment [2] is REL-A (p65) nuclear translocation in HeLa cells. Put plainly: REL-A (p65) nuclear translocation assay in HeLa cells, TNF-α stimulated (classical NF-kB signaling), high content imaging. To be noted: Homo sapiens, HeLa, compound 4.5 h, then 10 ng/mL TNF-α for 30 minutes, read-out: REL-A HeLa Transloc Assay (IC50). It counts as cell-based. In a few lines: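 HeLa cells in medium with 10% fetal bovine serum were exposed to compounds (0.2% DMSO final) for 4.5 hours, then stimulated with 10 ng/mL TNF-α for 30 minutes. After fixation in 4% paraformaldehyde and permeabilization with 0.1% Triton X-100, cells were stained with 400 ng/mL anti-REL-A (p65) antibody, an Alexa488 secondary and DRAQ5. Opera imaging quantified the nuclear-to-cytoplasmic signal ratio to give IC50.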

The test system of experiment [3] is p52 (NF-kB2) nuclear translocation in HeLa cells. Put plainly: p52 (NF-kB2) nuclear translocation assay in HeLa cells, anti-lymphotoxin beta receptor antibody stimulated (non-classical NF-kB signaling), high content imaging. It counts as cell-based. Conditions: Homo sapiens, 100 ng/mL anti-lymphotoxin beta receptor antibody for 5 hours, read-out: p52 HeLa Transloc Assay (IC50). In a few lines:
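HeLa cells in 10% FBS medium were treated with compound (0.2% DMSO final) and stimulated with 100 ng/mL anti-lymphotoxin beta receptor antibody for 5 h. Fixed cells were immunostained for p52 and imaged with DRAQ5 nuclear stain. Translocation is the nuclear to cytoplasmic intensity ratio, […].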

Molecules are shown by their SMILES. pIC50: −log10 of the molar value. Where only a bound is given, the exact number is not on record here.

T1 sequence (Q99558 whole entry): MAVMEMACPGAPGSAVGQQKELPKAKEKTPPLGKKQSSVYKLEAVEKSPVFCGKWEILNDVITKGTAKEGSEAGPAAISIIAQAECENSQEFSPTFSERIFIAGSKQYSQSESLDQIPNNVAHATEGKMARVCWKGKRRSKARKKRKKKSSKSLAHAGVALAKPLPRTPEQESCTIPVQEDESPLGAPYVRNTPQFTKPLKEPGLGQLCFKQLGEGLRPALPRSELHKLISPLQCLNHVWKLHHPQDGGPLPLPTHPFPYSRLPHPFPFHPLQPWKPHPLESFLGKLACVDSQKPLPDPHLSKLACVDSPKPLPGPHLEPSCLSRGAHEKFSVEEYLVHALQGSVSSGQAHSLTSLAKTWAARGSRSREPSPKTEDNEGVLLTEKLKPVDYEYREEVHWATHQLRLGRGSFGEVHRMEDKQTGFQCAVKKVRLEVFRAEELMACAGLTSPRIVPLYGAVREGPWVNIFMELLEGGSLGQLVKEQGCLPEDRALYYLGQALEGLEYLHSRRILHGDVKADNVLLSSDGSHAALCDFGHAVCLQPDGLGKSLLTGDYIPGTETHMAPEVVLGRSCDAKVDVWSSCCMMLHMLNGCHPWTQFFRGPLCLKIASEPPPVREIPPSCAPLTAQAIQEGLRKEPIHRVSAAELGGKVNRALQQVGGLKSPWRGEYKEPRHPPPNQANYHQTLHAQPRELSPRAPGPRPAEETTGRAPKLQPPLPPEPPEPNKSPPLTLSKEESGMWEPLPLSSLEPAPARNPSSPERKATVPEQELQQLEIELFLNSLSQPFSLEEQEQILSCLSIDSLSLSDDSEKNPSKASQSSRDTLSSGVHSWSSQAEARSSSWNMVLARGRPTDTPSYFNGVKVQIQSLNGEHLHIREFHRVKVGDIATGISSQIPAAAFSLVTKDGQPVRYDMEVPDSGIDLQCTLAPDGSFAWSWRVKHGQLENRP

Regarding `CN1CC[C@@](O)(C#Cc2cccc(-c3ncc(N)c(C(N)=O)n3)c2)C1=O` [Example 145, 5-amino-2-[3-[2-[(3R)-3-hydroxy-1-methyl-2-oxo-pyrrolidin-3-yl]ethynyl]phenyl]pyrimidine-4-carboxamide], affinity in experiment [1] was put at a Ki of 0.05 nM. In addition, the pIC50 in experiment [2] was no more than 5.70; in experiment [3], 7.42.
For the compound `CN1CC[C@@](O)(C#Cc2cccc(-c3ncc(NCC(F)(F)F)c(C(N)=O)n3)c2)C1=O` [Example 146, 2-[3-[2-[(3R)-3-hydroxy-1-methyl-2-oxo-pyrrolidin-3-yl]ethynyl]phenyl]-5-(2,2,2-trifluoroethylamino) pyrimidine-4-carboxamide], in experiment [1], the affinity corresponds to a Ki of 0.37 nM. Also, the pIC50 in experiment [2] is no more than 4.70; in experiment [3], 7.94.
The matching figures for `COC[C@@H](C)Nc1ccc(-c2cc(C#C[C@]3(O)CCN(C)C3=O)ccc2F)nc1C(N)=O` [Example 148, 6-[2-fluoro-5-[2-[(3R)-3-hydroxy-1-methyl-2-oxo-pyrrolidin-3-yl]ethynyl]phenyl]-3-[[(1R)-2-methoxy-1-methyl-ethyl]amino] pyridine-2-carboxamide]: 0.19 nM, no more than 5.70 and 7.28.
As to `COC[C@H](C)Nc1ccc(-c2cc(C#C[C@]3(O)CCN(C)C3=O)ccc2F)nc1C(N)=O` [Example 149, 6-[2-fluoro-5-[2-[(3R)-3-hydroxy-1-methyl-2-oxo-pyrrolidin-3-yl]ethynyl]phenyl]-3-[[(1S)-2-methoxy-1-methyl-ethyl]amino]pyridine-2-carboxamide], the affinity in experiment [1] corresponds to a Ki of 0.88 nM. Besides, the pIC50 in experiment [2] was no more than 5.70; in experiment [3], 7.29.
The matching figures for `Cc1nnc([C@](C)(O)C#Cc2cccc(-c3nc(C(N)=O)cc(-n4nccc4C)n3)c2)o1` [Example 150]: 0.99 nM, less than 5.70 and 6.20.
For `Cc1cc(C(N)=O)nc(-c2cccc(C#C[C@]3(O)CCN(C)C3=O)c2)c1F` [Example 151, 5-fluoro-6-[3-[2-[(3R)-3-hydroxy-l-methyl-2-oxo-pyrrolidin-3-yl]ethynyl]phenyl]-4-methyl-pyridine-2-carboxamide], the inhibition constant (Ki) in experiment [1] stood at 0.67 nM. Moreover, the pIC50 in experiment [2] was less than 5.70; in experiment [3], 6.40.
`CN1CC[C@@](O)(C#Cc2cc(-c3ccc(N)c(C(N)=O)n3)ccc2F)C1=O` [Example 152, 3-amino-6-[4-fluoro-3-[2-[(3R)-3-hydroxy-l-methyl-2-oxo-pyrrolidin-3-yl]ethynyl]phenyl] pyridine-2-carboxamide] yielded a Ki in experiment [1] of less than 0.05 nM. Besides, the values for the pIC50 in experiment [2] and in experiment [3] were less than 5.70 and 7.34, respectively.
The matching figures for `COCCNc1cnc(-c2cc(C#C[C@]3(O)CCN(C)C3=O)c(F)cc2F)nc1C(N)=O` [Example 153, 2-[2,4-difluoro-5[2-[(3R)-3-hydroxy-1-methyl-2-oxo-pyrrolidin-3-yl]ethynyl]phenyl]-5-(2-methoxyethylamino) pyrimidine-4-carboxamide]: 0.1 nM, less than 5.70 and 7.35.
In turn, `Cc1cn[nH]c1-c1cc(C(N)=O)nc(-c2cccc(C#C[C@]3(O)CCN(C)C3=O)c2)n1` [Example 155, 2-[3-[2-[(3R)-3-hydroxy-l-methyl-2-oxo-pyrrolidin-3-yl]ethynyl]phenyl]-6-(4-methyl-1H-pyrazol-5-yl) pyrimidine-4-carboxamide] came in with a Ki in experiment [1] of less than 0.05 nM. Also, the pIC50 is less than 5.70 in experiment [2] and 6.56 in experiment [3].
The compound `Cc1cc(C(N)=O)nc(-c2cc(C#C[C@]3(O)CCN(C)C3=O)ccc2F)c1` [Example 158, 6-[2-fluoro-5-[2-[(3R)-3-hydroxy-1-methyl-2-oxo-pyrrolidin-3-yl]ethynyl]phenyl]-4-methyl-pyridine-2-carboxamide] came in with a Ki in experiment [1] of 0.06 nM. Also, the pIC50 in experiment [2] is less than 5.70; in experiment [3], 7.20.

The term Ki denotes a measure of affinity in units of concentration, obtained from inhibition or displacement. Low values mean tighter binding, high ones weaker binding. What is called pIC50 is −log10 of the IC50, conventionally taken in molar units.
